Laboratory results: PMC7539012, “Hyperphosphorylated tau aggregation and cytotoxicity modulators screen identified prescription drugs linked to Alzheimer's disease and cognitive functions” (Scientific Reports, 2020)
Structures can show the parent of a compound that is named as a salt. Where two headings read alike, the source gives them in different places.

Test system: T1, 1N4R p-tau
T1 construct: made in house; host or cells: E. coli (PIMAX system)
Test: p-tau aggregation modulator screen of 1280-compound library (ThS fluorescence net change over 16 h);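 for ThS net change: 30 µM compound with 6 µM p-tau over 16 h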
Type: biochemical
Design: key to PTAI>3SD: *: PTAI>3SD

[1] = p-tau aggregation modulator screen of 1280-compound library, […]
[2] = p-tau aggregation modulator screen of 1280-compound library, ThS fluorescence net change
[3] = 1280-compound library screen, ThS fluorescence net change over 16 h
[4] = p-tau aggregation modulator screen of the compound library, ThS fluorescence net change
[5] = 1280-compound library screen, […]
[6] = library screen, ThS fluorescence net change over 16 h with p-tau

Structure (SMILES): Br.COc1ccc2c(c1)[C@]13CCCC[C@@H]1[C@H](C2)N(C)CC3.O
- ThS net change [1]: 372

Structure (SMILES): COc1cc2c(cc1OC)C(C)NCC2.Cl (stereo not drawn)
- ThS net change [1]: 359

Structure (SMILES): Cc1ccc(Cl)c(Nc2ccccc2C(=O)[O-])c1Cl.O.[Na+]
- ThS net change: 436

Structure (SMILES): CC(C)NCC(O)c1cc(O)cc(O)c1.CC(C)NCC(O)c1cc(O)cc(O)c1.O=S(=O)(O)O (stereo not drawn)
- ThS net change [2]: 362

Structure (SMILES): Cl.Cl.c1ccc2c(c1)CCCc1cc(NCCN3CCOCC3)nnc1-2
- ThS net change [2]: 345

Structure (SMILES): CN1CCc2cccc3c2[C@H]1Cc1ccc(O)c(O)c1-3.CN1CCc2cccc3c2[C@H]1Cc1ccc(O)c(O)c1-3.Cl.Cl.O
- ThS net change: 233

Structure (SMILES): Cl.Cl.Cl.Cl.Cl.NCCNCCNCCNCCN
- ThS net change [3]: 394

Structure (SMILES): O=C(O)Cc1cc(I)c(Oc2ccc(O)c(I)c2)c(I)c1
- ThS net change [2]: 369

Structure (SMILES): CC=CC1=C(C(=O)O)N2C(=O)[C@@H](NC(=O)[C@H](N)c3ccc(O)cc3)[C@H]2SC1 (mixture of isomers) [Cefprozil]
- ThS net change [4]: 440

Structure (SMILES): CC=CC(=O)N(CC)c1ccccc1C (mixture of isomers) [Crotamiton]
- ThS net change [3]: 386

Structure (SMILES): CCCCC(C)(O)C/C=C/[C@H]1[C@H](O)CC(=O)[C@@H]1CCCCCCC(=O)OC (mixture of isomers) [Misoprostol]
- ThS net change [4]: 495

Structure (SMILES): C#C[C@]1(OC(C)=O)CC[C@H]2[C@@H]3CCC4=CC(=NO)CC[C@@H]4[C@H]3CC[C@@]21CC (mixture of isomers) [Norgestimate]
- ThS net change [4]: 486

Structure (SMILES): CN(N=O)C(=O)N[C@H]1C(O)O[C@H](CO)[C@@H](O)[C@@H]1O (mixture of isomers) [Streptozotocin]
- ThS net change [3]: 384

Structure (SMILES): Cl.NCC(O)c1ccc(O)cc1 (racemic) [(+,-)-Octopamine hydrochloride]
- ThS net change [4]: 413

Structure (SMILES): CNCC(O)c1ccc(O)cc1 (racemic) [(+,-)-Synephrine]
- ThS net change [5]: 410

Structure (SMILES): CN(Cc1cnc2nc(N)nc(N)c2n1)c1ccc(C(=O)NC(CCC(=O)O)C(=O)O)cc1 (racemic) [Amethopterin (R,S)]
- ThS net change [2]: 373

Structure (SMILES): NCC(CC(=O)O)c1ccc(Cl)cc1 (racemic) [Baclofen (R,S)]
- ThS net change [3]: 407

Structure (SMILES): COC(=O)C1=C(C)NC(C)=C(C(=O)O[C@@H]2CCCN(Cc3ccccc3)C2)[C@@H]1c1cccc([N+](=O)[O-])c1.Cl (racemic) [Benidipine hydrochloride]
- ThS net change [6]: 259

Structure (SMILES): CC(C)(S)C(N)C(=O)O (racemic) [D,L-Penicillamine]
- ThS net change [3]: 385

Structure (SMILES): OCC(O)CN1CCN(c2ccccc2)CC1 (racemic) [Dropropizine (R,S)]
- ThS net change [4]: 418

Structure (SMILES): Nc1c2c(nc3ccccc13)CCCC2O.O=C(O)/C=C\C(=O)O (racemic) [Hydroxytacrine maleate (R,S)]
- ThS net change [4]: 423

Structure (SMILES): COCCc1ccc(OCC(O)CNC(C)C)cc1.COCCc1ccc(OCC(O)CNC(C)C)cc1.O=C(O)C(O)C(O)C(=O)O (racemic) [Metoprolol-(+,-) (+)-tartrate salt]
- ThS net change [3]: 390

Structure (SMILES): CC(=O)NC1CCSC1=O (racemic) [N-Acetyl-DL-homocysteine Thiolactone]
- ThS net change: 421

Structure (SMILES): CC(C)NCC(O)COc1ccc(CC(N)=O)cc1 (stereo in doubt) [(R)-(+)-Atenolol]
- ThS net change [3]: 395

Structure (SMILES): CC(C)NCC(O)COc1ccc(CC(N)=O)cc1 (stereo in doubt) [(S)-(-)-Atenolol]
- ThS net change [2]: 363

Structure (SMILES): NC1CONC1=O (stereo in doubt) [(S)-(-)-Cycloserine]
- ThS net change [3]: 391

Structure (SMILES): O=C1c2cccc(O)c2C(=O)c2c(O)cccc21 [1,8-Dihydroxyanthraquinone]
- PTAI>3SD (flag: p-tau aggregation inhibitor, ThS net change more than 3 SD from mean): *
- ThS net change [6]: 25

Structure (SMILES): Nc1ccccc1S(N)(=O)=O [2-Aminobenzenesulfonamide]
- ThS net change [4]: 430

Structure (SMILES): Clc1cnccn1 [2-Chloropyrazine]
- ThS net change [3]: 410

Structure (SMILES): C[C@]12CCC3[C@@H](CC[C@@H]4C[C@H](O)CC[C@]34C)[C@@H]1CCC2=O (stereo partly drawn) [3-alpha-Hydroxy-5-beta-androstan-17-one]
- ThS net change: 426

Structure (SMILES): Nc1ccc(C(=O)O)c(O)c1 [4-aminosalicylic acid]
- ThS net change: 428

Structure (SMILES): O=c1[nH]cc(F)c(=O)[nH]1 [5-fluorouracil]
- ThS net change [4]: 471

Structure (SMILES): c1coc(CNc2ncnc3nc[nH]c23)c1 [6-Furfurylaminopurine]
- ThS net change [4]: 413

Structure (SMILES): CC(C)(C)NC[C@@H](O)COc1cccc2c1CCCC2=O.Cl [(+) -Levobunolol hydrochloride]
- ThS net change [2]: 350

Structure (SMILES): CC(C)NC[C@@H](O)c1ccc(O)c(O)c1.O=C(O)C(O)C(O)C(=O)O [(+)-Isoproterenol (+)-bitartrate salt]
- ThS net change [2]: 345

Structure (SMILES): CC(C)(C)NC[C@H](O)COc1cccc2c1CCCC2=O.Cl [(-) -Levobunolol hydrochloride]
- ThS net change [3]: 397

Structure (SMILES): Nc1nc(=O)n([C@@H]2CS[C@H](CO)O2)cc1F [(-)-Emtricitabine]
- ThS net change [2]: 359

Structure (SMILES): CN1CC[C@@]2(C)c3cc(O)ccc3N(C)[C@H]12.O=C(O)/C=C/C(=O)O [(-)-Eseroline fumarate salt]
- ThS net change: 309

Structure (SMILES): CC(C)NC[C@H](O)c1ccc(O)c(O)c1.Cl [(-)-Isoproterenol hydrochloride]
- ThS net change [3]: 400

Structure (SMILES): C[C@@]12N[C@@H](Cc3ccccc31)c1ccccc12.O=C(O)/C=C\C(=O)O [(-)-MK 801 hydrogen maleate]
- ThS net change [1]: 354

Structure (SMILES): COc1ccc2cc([C@@H](C)C(=O)[O-])ccc2c1.[Na+] [(R) -Naproxen sodium salt]
- ThS net change: 376

Structure (SMILES): CC(C)NC[C@@H](O)COc1cccc2ccccc12.Cl [(R)-Propranolol hydrochloride]
- ThS net change: 416

Structure (SMILES): CC(C)NC[C@H](O)COc1cccc2ccccc12 [(S)-propranolol hydrochloride]
- ThS net change: 434

Structure (SMILES): Nc1nc(NC2CC2)c2ncn([C@H]3C=C[C@@H](CO)C3)c2n1 [Abacavir Sulfate]
- ThS net change [2]: 363

Structure (SMILES): CC(=O)NCCCS(=O)(=O)O [Acamprosate calcium]
- ThS net change: 422

Structure (SMILES): C[C@H]1O[C@H](O[C@H]2[C@H](O)[C@@H](O)[C@@H](O[C@H]3[C@H](O)[C@@H](O)C(O)O[C@@H]3CO)O[C@@H]2CO)[C@H](O)[C@@H](O)[C@@H]1N[C@H]1C=C(CO)[C@@H](O)[C@H](O)[C@H]1O (stereo partly drawn) [Acarbose]
- ThS net change [4]: 414

Structure (SMILES): CCCC(=O)Nc1ccc(OCC(O)CNC(C)C)c(C(C)=O)c1 (stereo not drawn) [Acebutolol hydrochloride]
- ThS net change [3]: 381

Structure (SMILES): CC(=O)OC1CN2CCC1CC2 (stereo not drawn) [Aceclidine Hydrochloride]
- ThS net change [5]: 409

Structure (SMILES): O=C(O)COC(=O)Cc1ccccc1Nc1c(Cl)cccc1Cl [Aceclofenac]
- ThS net change [3]: 390

Structure (SMILES): Cn1c(=O)c2c(ncn2CC(=O)O)n(C)c1=O [Acefylline]
- ThS net change [4]: 416

Structure (SMILES): COc1ccc2c(c1)c(CC(=O)OCC(=O)O)c(C)n2C(=O)c1ccc(Cl)cc1 [Acemetacin]
- ThS net change [2]: 349

Structure (SMILES): CC(=O)CC(c1ccc([N+](=O)[O-])cc1)c1c(O)c2ccccc2oc1=O (stereo not drawn) [Acenocoumarol]
- ThS net change [4]: 568

Structure (SMILES): CC(=O)Nc1ccc(O)cc1 [Acetaminophen]
- ThS net change [3]: 385

Structure (SMILES): CC(=O)Nc1nnc(S(N)(=O)=O)s1 [Acetazolamide]
- ThS net change [4]: 429

Structure (SMILES): CC(=O)c1ccc(S(=O)(=O)NC(=O)NC2CCCCC2)cc1 [Acetohexamide]
- ThS net change [2]: 360

Structure (SMILES): CC(=O)c1ccc2c(c1)N(CCCN(C)C)c1ccccc1S2.O=C(O)/C=C\C(=O)O [Acetopromazine maleate salt]
- ThS net change [6]: 267

Structure (SMILES): CC(=O)N[C@@H](CS)C(=O)O [Acetylcysteine]
- ThS net change [4]: 423

Structure (SMILES): CC(=O)Oc1ccccc1C(=O)O [Acetylsalicylic acid]
- ThS net change [4]: 492

Structure (SMILES): CC(=O)Oc1ccccc1C(=O)Oc1ccccc1C(=O)O [Acetylsalicylsalicylic acid]
- ThS net change [2]: 363

Structure (SMILES): Cc1cnc(C(=O)O)c[n+]1[O-] [Acipimox]
- ThS net change [2]: 369

Structure (SMILES): COc1cc(C)c(/C=C/C(C)=C/C=C/C(C)=C/C(=O)O)c(C)c1C [Acitretin]
- ThS net change: 316

Structure (SMILES): CC(=O)Nc1ccc(CC(=O)O)cc1 [Actarit]
- ThS net change [4]: 435

Structure (SMILES): Nc1nc2c(ncn2COCCO)c(=O)[nH]1 [Acyclovir]
- ThS net change [2]: 367

Structure (SMILES): NC12CC3CC(CC(C3)C1)C2.NC12CC3CC(CC(C3)C1)C2.O=C(O)/C=C/C(=O)O [Adamantamine fumarate]
- ThS net change [4]: 423

Structure (SMILES): COc1ccc(-c2ccc3cc(C(=O)O)ccc3c2)cc1C12CC3CC(CC(C3)C1)C2 [Adapalene]
- ThS net change [4]: 477

Structure (SMILES): Nc1ncnc2c1ncn2[C@@H]1O[C@H](COP(=O)(O)O)[C@@H](O)[C@H]1O.O [Adenosine 5'-monophosphate monohydrate]
- ThS net change [1]: 369

Structure (SMILES): CCN(CC)CCOC(=O)C(c1ccccc1)c1ccccc1 [Adiphenine hydrochloride]
- ThS net change [6]: 318

Structure (SMILES): C[C@]12CCC(=O)C=C1CC[C@@H]1[C@@H]2C(=O)C[C@]2(C)C(=O)CC[C@@H]12 [Adrenosterone]
- ThS net change [1]: 334

Structure (SMILES): CCCSc1ccc2nc(NC(=O)OC)[nH]c2c1 [Albendazole]
- ThS net change: 324

Structure (SMILES): CCC(=O)OCC(=O)[C@@]1(OC(=O)CC)[C@H](C)C[C@H]2[C@H]3[C@H]([C@@H](O)C[C@@]21C)[C@@]1(C)C=CC(=O)C=C1C[C@H]3Cl [Alclometasone dipropionate]
- ThS net change [1]: 363

Structure (SMILES): C=CC[N@@+]12CC[C@]34c5ccccc5N5/C=C6\C7N(/C=C(\C53)[C@@H](C[C@@H]41)/C(=C/CO)C2)c1ccccc1[C@@]71CC[N@@+]2(CC=C)C/C(=C\CO)[C@@H]6C[C@@H]12.[Cl-].[Cl-] (stereo partly drawn) [Alcuronium chloride]
- ThS net change: 460

Structure (SMILES): NCCCC(O)(P(=O)(O)O)P(=O)(O)O [Alendronate sodium]
- ThS net change: 381

Structure (SMILES): CCCCC(CC)CNC(=N)NC(=N)NCCCCCCNC(=N)NC(=N)NCC(CC)CCCC (stereo not drawn) [Alexidine dihydrochloride]
- ThS net change [6]: 327

Structure (SMILES): C=C1/C(=C\C=C2/CCC[C@]3(C)[C@@H]([C@H](C)CCCC(C)C)CC[C@@H]23)C[C@@H](O)C[C@@H]1O [Alfacalcidol]
- ThS net change [6]: 284
